This series in a line: AMES test (mutagenicity). Format: cell-based.

In the case of `CCCCOc1ccc(C(F)(F)F)cc1N` [5-Trifluormethyl-2-n-butoxy-anilin], the AMES-Test result is “nicht-mutagen”.

Values taken from EP0300390A1, “Trifluoromethyl-alkoxy-anilin, process for their preparation and their use in the ice-colour technique” (HOECHST AKTIENGESELLSCHAFT, priority 1987, dated 1989).
